Experiments:
Assay in all cases: relative viability (nuclei count vs DMSO), 5 days (fraction); higher = more cells survive
RU-SKI 43 + AZD7762 = compound: CC[C@@H](C)CNCC(=O)N1CCC2=C([C@@H]1COC3=CC=CC(=C3)C)C=CS2 [RU-SKI 43] + NC(=O)Nc1cc(-c2cccc(F)c2)sc1C(=O)N[C@H]1CCCNC1 [AZD7762] (partner 0.2 µM)
In short: (§1)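 Relative viability was taken as the ratio of nuclei in treated wells to nuclei in vehicle wells. Lung cancer cell lines in 1536-well plates received compounds by pin tool one day after seeding, either one drug alone or a fixed anchor-drug dose plus five library-drug doses (not always all listed) in √10 steps. Nuclei were counted on 4× images after 5 days of treatment, and values are medians of duplicate plates.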

Irinotecan + Palbociclib = compound: CCc1c2c(nc3ccc(OC(=O)N4CCC(N5CCCCC5)CC4)cc13)-c1cc3c(c(=O)n1C2)COC(=O)[C@]3(O)CC [Irinotecan] + CC(=O)c1c(C)c2cnc(Nc3ccc(N4CCNCC4)cn3)nc2n(C2CCCC2)c1=O [Palbociclib] (partner 0.5 µM)
In short: as §1

MK-8033 + Palbociclib = compound: Cn1cc(-c2cnc3ccc4ccc(CS(=O)(=O)NCc5ccccn5)cc4c(=O)c3c2)cn1 [MK-8033] + CC(=O)c1c(C)c2cnc(Nc3ccc(N4CCNCC4)cn3)nc2n(C2CCCC2)c1=O [Palbociclib] (partner 0.5 µM)
In short: as §1

RU-SKI 43 + Navitoclax = compound: CC[C@@H](C)CNCC(=O)N1CCC2=C([C@@H]1COC3=CC=CC(=C3)C)C=CS2 [RU-SKI 43] + CC1(C)CCC(c2ccc(Cl)cc2)=C(CN2CCN(c3ccc(C(=O)NS(=O)(=O)c4ccc(N[C@H](CCN5CCOCC5)CSc5ccccc5)c(S(=O)(=O)C(F)(F)F)c4)cc3)CC2)C1 [Navitoclax] (partner 0.5 µM)
In short: as §1

Row | Cell Line | relative viability (RU-SKI 43 + AZD7762; first compound 0.1 µM) | relative viability (RU-SKI 43 + AZD7762; first compound 0.3162 µM) | relative viability (RU-SKI 43 + AZD7762; first compound 1 µM) | relative viability (RU-SKI 43 + AZD7762; first compound 3.162 µM) | relative viability (RU-SKI 43 + AZD7762; first compound 10 µM) | relative viability (Irinotecan + Palbociclib; first compound 0.6325 µM) | relative viability (Irinotecan + Palbociclib; first compound 2 µM) | relative viability (Irinotecan + Palbociclib; first compound 6.325 µM) | relative viability (Irinotecan + Palbociclib; first compound 20 µM) | relative viability (MK-8033 + Palbociclib; first compound 0.02 µM) | relative viability (MK-8033 + Palbociclib; first compound 0.06325 µM) | relative viability (MK-8033 + Palbociclib; first compound 0.2 µM) | relative viability (MK-8033 + Palbociclib; first compound 0.6325 µM) | relative viability (MK-8033 + Palbociclib; first compound 2 µM) | relative viability (RU-SKI 43 + Navitoclax; first compound 0.1 µM) | relative viability (RU-SKI 43 + Navitoclax; first compound 0.3162 µM) | relative viability (RU-SKI 43 + Navitoclax; first compound 1 µM) | relative viability (RU-SKI 43 + Navitoclax; first compound 3.162 µM) | relative viability (RU-SKI 43 + Navitoclax; first compound 10 µM)
1 | LXF-289 | 1.13 | 1.11 | 1.14 | 1.09 | 1.03 | 0.527 | 0.279 | 0.251 | 0.23 | 0.612 | 0.579 | 0.61 | 0.597 | 0.596 | 0.982 | 0.973 | 1.03 | 0.992 | 0.91
2 | HCC-827 | 0.188 | 0.155 | 0.206 | 0.223 | 0.197 | 0.438 | 0.304 | 0.167 | 0.206 | 0.49 | – | 0.471 | 0.49 | 0.545 | 0.998 | 0.954 | 1.03 | 1.08 | 0.973
3 | HCC-44 | 0.995 | 1.04 | 1.08 | 1.06 | 1.01 | 0.841 | 0.631 | 0.484 | 0.532 | 0.98 | 1.01 | 0.975 | 1.01 | 1.01 | 0.863 | 1.13 | 0.968 | 0.986 | 0.902
4 | NCI-H2023 | – | – | – | – | – | 0.503 | 0.385 | 0.248 | 0.077 | 0.39 | 0.279 | 0.236 | 0.214 | 0.174 | 1.01 | 1.3 | 1.08 | 1.09 | 0.977
5 | NCI-H1734 | 0.588 | 0.604 | 0.573 | 0.61 | 0.579 | – | 0.256 | 0.193 | 0.373 | 0.349 | 0.309 | 0.342 | 0.331 | 0.371 | 0.867 | 1.49 | 0.911 | 0.899 | 0.803
6 | PC-14 | 0.392 | 0.377 | 0.441 | 0.32 | 0.379 | 0.378 | 0.34 | 0.183 | 0.148 | 0.517 | 0.422 | 0.542 | 0.553 | 0.464 | 0.962 | 1.3 | 1.08 | 0.985 | 0.957
7 | NCI-H3122 | 0.957 | 1.27 | 1.01 | 1.15 | 0.95 | 0.155 | 0.114 | 0.16 | 0.126 | 0.155 | 0.173 | 0.19 | 0.191 | 0.223 | 1.03 | 1 | 0.995 | 0.97 | 0.98
8 | SW 1573 | – | – | – | – | – | – | 0.329 | 0.181 | 0.101 | 0.373 | 0.392 | 0.345 | 0.409 | 0.389 | 0.993 | 0.93 | 0.898 | 1.03 | 0.721
9 | NCI-H2342 | 0.474 | – | 0.564 | 0.468 | 0.477 | 0.557 | 0.486 | 0.509 | 0.495 | 0.487 | 0.548 | 0.623 | 0.492 | 0.526 | – | – | – | – | –
10 | IA-LM | – | – | – | – | – | – | – | – | – | – | – | – | – | – | 0.752 | 0.751 | 0.856 | 0.738 | 0.824
11 | NCI-H661 | – | – | – | – | – | 0.397 | 0.435 | 0.457 | 0.142 | 0.389 | 0.369 | 0.403 | 0.397 | 0.413 | – | – | – | – | –
12 | NCI-H1650 | – | – | – | – | – | 0.184 | 0.305 | 0.285 | 0.101 | 0.363 | 0.296 | 0.324 | 0.336 | 0.336 | 1.17 | 1.38 | 1.41 | 1.06 | 0.813
13 | NCI-H2228 | – | – | – | – | – | 0.453 | 0.664 | 0.393 | 0.456 | 0.815 | 0.729 | 0.807 | 0.621 | 0.82 | 0.91 | 1.3 | 0.995 | 1.25 | 0.987
14 | NCI-H596 | 1.22 | 1.17 | 1.12 | 1.29 | 1.05 | – | – | – | – | – | – | – | – | – | 0.896 | 0.833 | 0.994 | 1.06 | 1.01
15 | SK-LU-1 | – | – | – | – | – | 0.35 | 0.354 | 0.299 | 0.336 | 0.411 | 0.373 | 0.373 | 0.367 | 0.383 | 0.789 | 0.817 | 0.841 | 0.831 | 1.03
16 | COR-L23 | – | – | – | – | – | 0.155 | 0.218 | 0.184 | 0.105 | 0.239 | 0.29 | 0.27 | 0.304 | 0.326 | 0.971 | 0.628 | 1.11 | 1.04 | 1.07
17 | SW 900 | 0.523 | 0.612 | 0.571 | 0.588 | 0.58 | – | 0.42 | 0.274 | 0.416 | 0.518 | 0.536 | 0.493 | 0.519 | 0.495 | – | – | – | – | –
18 | NCI-H2009 | – | – | – | – | – | 0.197 | 0.317 | 0.147 | 0.0702 | 0.251 | 0.23 | 0.249 | 0.214 | 0.304 | 1.11 | 1.21 | 1.17 | 1.15 | 1.1
19 | NCI-H1703 | 0.177 | 0.137 | 0.134 | 0.11 | 0.12 | – | – | – | – | – | – | – | – | – | 1.2 | 1.08 | 0.987 | 1.16 | 0.535
20 | COR-L 105 | – | – | – | – | – | 0.407 | 0.395 | 0.454 | 0.3 | 0.429 | 0.388 | 0.394 | 0.464 | 0.418 | 0.909 | 0.61 | 0.648 | 0.858 | 0.595
21 | NCI-H1299 | – | – | – | – | – | – | – | – | – | – | – | – | – | – | 1.04 | 1.09 | 1.07 | 1.01 | 1.03
22 | SK-MES-1 | – | – | – | – | – | 0.354 | 0.342 | 0.291 | 0.175 | 0.333 | 0.299 | 0.305 | 0.359 | 0.309 | 1.31 | 1.55 | 1.33 | 1.25 | 1.12

From the supplement of paper PMC10307832
